Drawing on BindingDB's records for patent US20230416245 (Biointervene, 2023), this text covers Ki for one molecule.

The target in this assay is T1, Adenosine receptor A3 (Homo sapiens, UniProt P0DMS8).
T1 sequence (P0DMS8 whole entry): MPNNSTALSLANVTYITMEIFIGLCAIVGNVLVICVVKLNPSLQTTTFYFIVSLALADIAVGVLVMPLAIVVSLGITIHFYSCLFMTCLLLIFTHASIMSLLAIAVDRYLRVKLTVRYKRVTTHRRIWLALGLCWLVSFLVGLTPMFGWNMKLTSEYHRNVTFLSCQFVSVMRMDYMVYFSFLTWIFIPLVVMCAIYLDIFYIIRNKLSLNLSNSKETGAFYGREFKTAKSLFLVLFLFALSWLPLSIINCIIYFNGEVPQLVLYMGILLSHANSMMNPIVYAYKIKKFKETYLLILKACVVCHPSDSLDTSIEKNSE
Description: Adenosine Receptor Binding Assay. The method, then: Radioligand-binding assays were performed using the adenosine A3 receptor agonist [125I]-AB-MECA and the A1 receptor agonist [3H]CCPA. Binding assays were conducted in a total volume of 100 μL containing a 50 mM Tris, pH 7.4 buffer with or without 10 mM MgCl2, 20 μg membranes and either 0.15 nM [125I]-AB-MECA (for the A3 receptor) or 1 nM [3H]CCPA (for the A1 receptor). Assays were conducted at room temperature for 60 min (A1 receptor) or 120 min (A3 receptor) and terminated by the addition of 2 ml of ice-cold wash buffer (50 mM Tris, pH 7.4 with or without 10 mM MgCl2) and rapid filtration over 0.03% polyethylenimine-treated Whatman GF/C filters using a Brandel cell harvester (Semat International Ltd., St Albans, UK). Filters were then washed three times with 2 ml of ice-cold buffer. The filter-bound radioactivity were counted using a Compugamma counter (LKB Wallac, Turku, Finland). Competition experiments were performed to investigate the ability of reference compounds and embodiments of the invention to inhibit [125I]-AB-MECA binding. Non-specific binding were determined using the respective compound at its highest concentration

With `CCNc1cc(Cl)nc2c1ncn2[C@H]1[C@H](O)[C@H](O)[C@]2(C(=O)NC)C[C@H]12` [US20230416245, Compound 59], the affinity, expressed as Ki, was 0.23 nM.
